Data published in US12252484B2, “Pyrazolopyridine compounds for the treatment of autoimmune disease” (Hoffmann-La Roche Inc., priority 2018, dated 2025).

molecular target: T1, human TLR9 (Homo sapiens, UniProt Q9NR96); assay: HEK293-Blue-hTLR-9 cells assay (SEAP reporter, ODN2006 stimulation); type: cell-based; conditions: not given
T1 sequence (Q9NR96 26-1032): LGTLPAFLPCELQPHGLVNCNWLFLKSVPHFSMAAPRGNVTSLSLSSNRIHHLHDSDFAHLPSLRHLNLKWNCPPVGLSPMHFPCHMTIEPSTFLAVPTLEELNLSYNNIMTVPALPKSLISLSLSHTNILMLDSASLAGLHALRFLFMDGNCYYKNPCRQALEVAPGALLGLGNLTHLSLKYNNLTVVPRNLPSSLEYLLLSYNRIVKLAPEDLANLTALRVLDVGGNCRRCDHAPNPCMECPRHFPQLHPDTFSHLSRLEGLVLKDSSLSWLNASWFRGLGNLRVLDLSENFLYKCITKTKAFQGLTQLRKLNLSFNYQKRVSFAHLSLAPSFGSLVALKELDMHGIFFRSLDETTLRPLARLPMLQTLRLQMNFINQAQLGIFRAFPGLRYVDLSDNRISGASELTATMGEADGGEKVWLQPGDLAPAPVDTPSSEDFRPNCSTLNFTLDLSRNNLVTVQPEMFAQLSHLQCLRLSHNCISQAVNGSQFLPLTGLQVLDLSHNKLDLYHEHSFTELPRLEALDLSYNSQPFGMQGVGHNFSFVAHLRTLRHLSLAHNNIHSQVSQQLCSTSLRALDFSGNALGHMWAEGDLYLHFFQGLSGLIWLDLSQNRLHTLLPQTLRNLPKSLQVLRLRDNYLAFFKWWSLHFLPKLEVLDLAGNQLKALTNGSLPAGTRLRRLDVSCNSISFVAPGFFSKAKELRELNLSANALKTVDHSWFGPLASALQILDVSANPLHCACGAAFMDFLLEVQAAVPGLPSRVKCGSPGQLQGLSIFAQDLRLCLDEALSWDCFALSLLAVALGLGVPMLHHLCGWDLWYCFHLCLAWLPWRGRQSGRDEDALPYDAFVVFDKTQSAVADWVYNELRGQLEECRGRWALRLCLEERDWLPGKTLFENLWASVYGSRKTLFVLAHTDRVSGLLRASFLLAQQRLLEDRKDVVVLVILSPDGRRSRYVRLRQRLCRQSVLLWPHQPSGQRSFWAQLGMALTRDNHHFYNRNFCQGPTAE
Experimental: The following tests were carried out in order to determine the activity of the compounds of formula (I) in HEK293-Blue-hTLR-7/8/9 cells assay.
HEK293-Blue-hTLR-9 Cells Assay:
A stable HEK293-Blue-hTLR-9 cell line was purchased from InvivoGen (Cat. #: hkb-htlr9, San Diego, California, USA). These cells were originally designed for studying the stimulation of human TLR9 by monitoring the activation of NF-κB. A SEAP (secreted embryonic alkaline phosphatase) reporter gene was placed under the control of the IFN-β minimal promoter fused to five NF-κB and AP-1-binding sites. The SEAP was induced by activating NF-κB and AP-1 via stimulating HEK-Blue hTLR9 cells with TLR9 ligands. Therefore the reporter expression was declined by TLR9 antagonist under the stimulation of a ligand, such as ODN2006 (Cat. #: tlrl-2006-1, Invivogen, San Diego, California, USA), for incubation of 20 hrs. The cell culture supernatant SEAP reporter activity was determined using QUANTI-Blue™ kit (Cat. #: rep-qb1, Invivogen, San Diego, California, USA) at a wavelength of 640 nm, a detection medium that turns purple or blue in the presence of alkaline phosphatase.
HEK293-Blue-hTLR9 cells were incubated at a density of 250,000˜450,000 cells/mL in a volume of 170 μL in a 96-well plate in Dulbecco's Modified Eagle's medium (DMEM) containing 4.5 g/L glucose, 50 U/mL penicillin, […], 2 mM L-glutamine, 10% (v/v) heat-inactivated fetal bovine serum with addition of 20 μL test compound in a serial dilution in the presence of final DMSO at 1% and 10 μL of 20 uM ODN2006 in above DMEM, perform incubation under 37° C. in a CO2 incubator for 20 hrs. Then 20 μL of the supernatant from each well was incubated with 180 μL Quanti-blue substrate solution at 37° C. for 2 hrs and the absorbance was read at 620˜655 nm using a spectrophotometer. The signalling pathway that TLR9 activation leads to downstream NF-κB activation has been widely accepted, and therefore similar reporter assay was modified for evaluating TLR9 antagonist.

Work on `C[C@@H]1CN(c2ccc(C#N)n3nccc23)C[C@H](C(=O)NC2CC3CCCC(C2)N3C)O1` (stereo partly drawn) [Example 35, (2R,6R)-4-(7-cyanopyrazolo[1,5-a]pyridin-4-yl)-6-methyl-N-(9-methyl-9-azabicyclo[3.3.1]nonan-3-yl)morpholine-2-carboxamide] yielded an IC50 of 11 µM.

same assay, conditions: HEK293-Blue-hTLR-9 cells, ODN2006 ligand, 20 hrs incubation; read-out: TLR9 IC50

Going from `C[C@@H]1CN(c2ccc(C#N)n3nccc23)C[C@H](C(=O)NC(C)(C)CN)O1` [Example 41, (2R,6R)-N-(2-amino-1,1-dimethyl-ethyl)-4-(7-cyanopyrazolo[1,5-a]pyridin-4-yl)-6-methyl-morpholine-2-carboxamide] to `CCC(C)(C)NC(=O)[C@H]1CN(c2ccc(C#N)n3nccc23)C[C@@H](C)O1` [Example 17, (2R,6R)-4-(7-cyanopyrazolo[1,5-a]pyridin-4-yl)-N-(1,1-dimethylpropyl)-6-methyl-morpholine-2-carboxamide], the IC50 rises from 11 µM to 33 µM (3-fold). The first is the more potent here.

Going from `C[C@@H]1CN(c2ccc(C#N)n3nccc23)C[C@H](C(=O)NCC(C)(C)CN)O1` [Example 39, (2R,6R)-N-(3-amino-2,2-dimethyl-propyl)-4-(7-cyanopyrazolo[1,5-a]pyridin-4-yl)-6-methyl-morpholine-2-carboxamide] to `C[C@@H]1CN(c2ccc(C#N)n3nccc23)C[C@H](C(=O)NCC2CCNC2)O1` (stereo partly drawn) [Example 40, (2R,6R)-4-(7-cyanopyrazolo[1,5-a]pyridin-4-yl)-6-methyl-N-(pyrrolidin-3-ylmethyl)morpholine-2-carboxamide], the IC50 rises from 19 µM to 48 µM (2.5-fold).

Compared with `C[C@@H]1CN(c2ccc(Cl)n3nccc23)C[C@H](C(=O)NC2CCN(C)CC2)O1` [Example 38, (2R,6R)-4-(7-chloropyrazolo[1,5-a]pyridin-4-yl)-6-methyl-N-(1-methyl-4-piperidyl)morpholine-2-carboxamide], `C[C@@H]1CN(c2ccc(C#N)n3nccc23)C[C@H](C(=O)N[C@H]2CC[C@H](O)CC2)O1` [Example 21, Trans-(2R,6R)-4-(7-cyanopyrazolo[1,5-a]pyridin-4-yl)-N-(4-hydroxycyclohexyl)-6-methyl-morpholine-2-carboxamide] is higher in IC50: 36 µM for the first, > 100 µM for the second. The first is the more potent here.

First: C[C@@H]1CN(c2ccc(C#N)n3nccc23)C[C@H](C(=O)NC2C3CCC2CNC3)O1 (stereo partly drawn) [Example 26, (2R,6R)-N-(3-azabicyclo[3.2.1]octan-8-yl)-4-(7-cyanopyrazolo[1,5-a]pyridin-4-yl)-6-methyl-morpholine-2-carboxamide]
Second: C[C@@H]1CN(c2ccc(C#N)n3nccc23)C[C@H](C(=O)NC2C3CCCC2CNC3)O1 (stereo partly drawn) [Example 37, (2R,6R)-N-(3-azabicyclo[3.3.1]nonan-9-yl)-4-(7-cyanopyrazolo[1,5-a]pyridin-4-yl)-6-methyl-morpholine-2-carboxamide]
The IC50 of the first is 1.9-fold higher: 13 µM for the first, 6.8 µM for the second.

`C[C@@H]1CN(c2ccc(C#N)n3nccc23)C[C@H](C(=O)NC2CC3CCC2CN3C)O1` (stereo partly drawn) [Example 34, (2R,6R)-4-(7-cyanopyrazolo[1,5-a]pyridin-4-yl)-6-methyl-N-(2-methyl-2-azabicyclo[2.2.2]octan-5-yl)morpholine-2-carboxamide] and `C[C@@H]1CN(c2ccc(C#N)n3nccc23)C[C@H](C(=O)NC2CC3CC2CN3)O1` (stereo partly drawn) [Example 36, (2R,6R)-N-(2-azabicyclo[2.2.1]heptan-5-yl)-4-(7-cyanopyrazolo[1,5-a]pyridin-4-yl)-6-methyl-morpholine-2-carboxamide] are within 1.5-fold of each other in IC50: 11 µM for the first, 12 µM for the second.

`C[C@@H]1CN(c2ccc(C#N)n3nccc23)C[C@H](C(=O)NC23CC4CC(CC(C4)C2)C3)O1` [Example 12, (2R,6R)-N-(1-adamantyl)-4-(7-cyanopyrazolo[1,5-a]pyridin-4-yl)-6-methyl-morpholine-2-carboxamide] and `C[C@@H]1CN(c2ccc(C#N)n3nccc23)C[C@H](C(=O)NC2CC3(CNC3)C2)O1` [Example 3, (2R,6R)-N-(2-azaspiro[3.3]heptan-6-yl)-4-(7-cyanopyrazolo[1,5-a]pyridin-4-yl)-6-methyl-morpholine-2-carboxamide] are within 1.5-fold of each other in IC50: 42 µM for the first, 36 µM for the second.

Going from `C[C@@H]1CN(c2ccc(C#N)n3nccc23)C[C@H](C(=O)NC2C3CNCC2COC3)O1` (stereo partly drawn) [Example 27, (2R,6R)-4-(7-cyanopyrazolo[1,5-a]pyridin-4-yl)-6-methyl-N-(3-oxa-7-azabicyclo[3.3.1]nonan-9-yl)morpholine-2-carboxamide] to `C[C@@H]1CN(c2ccc(C#N)n3nccc23)C[C@H](C(=O)NC2C3CNC[C@@H]32)O1` (stereo partly drawn) [Example 31, Trans-(2R,6R)-N-(3-azabicyclo[3.1.0]hexan-6-yl)-4-(7-cyanopyrazolo[1,5-a]pyridin-4-yl)-6-methyl-morpholine-2-carboxamide], the IC50 falls from 6.8 µM to 1.1 µM (6.2-fold).

Compared with `C[C@@H]1CN(c2ccc(C#N)n3nccc23)C[C@H](C(=O)N[C@H]2CNC[C@H]2F)O1` [Example 2, (2R,6R)-4-(7-cyanopyrazolo[1,5-a]pyridin-4-yl)-N-[(3S,4R)-4-fluoropyrrolidin-3-yl]-6-methyl-morpholine-2-carboxamide], `C[C@@H]1CN(c2ccc(C#N)n3nccc23)C[C@H](C(=O)NC2CCNC2)O1` (stereo partly drawn) [Example 25, (2R,6R)-4-(7-cyanopyrazolo[1,5-a]pyridin-4-yl)-6-methyl-N-pyrrolidin-3-yl-morpholine-2-carboxamide] is lower in IC50: > 100 µM for the first, 25 µM for the second. The second is the more potent here.

First: C[C@@H]1CN(c2ccc(C#N)n3nccc23)C[C@H](C(=O)NC2CN(C)CC23CC3)O1 (stereo partly drawn) [Example 32, (2R,6R)-4-(7-cyanopyrazolo[1,5-a]pyridin-4-yl)-6-methyl-N-(5-methyl-5-azaspiro[2.4]heptan-7-yl)morpholine-2-carboxamide]
Second: C[C@@H]1CN(c2ccc(C#N)n3nccc23)C[C@H](C(=O)NC2(C)CCNCC2)O1 [Example 19, (2R,6R)-4-(7-cyanopyrazolo[1,5-a]pyridin-4-yl)-6-methyl-N-(4-methyl-4-piperidyl)morpholine-2-carboxamide]
The IC50 of the first is 1.6-fold lower: 9.7 µM for the first, 16 µM for the second. The first is the more potent here.

First: C[C@@H]1CN(c2ccc(C#N)n3nccc23)C[C@H](C(=O)NC2CC3COCC(C2)N3)O1 (stereo partly drawn) [Example 22, Endo-(2R,6R)-4-(7-cyanopyrazolo[1,5-a]pyridin-4-yl)-6-methyl-N-[3-oxa-9-azabicyclo[3.3.1]nonan-7-yl]morpholine-2-carboxamide]
Second: C[C@@H]1CN(c2ccc(C#N)n3nccc23)C[C@H](C(=O)NC2CC3CCCC(C2)N3)O1 (stereo partly drawn) [Example 14, (2R,6R)-N-(9-azabicyclo[3.3.1]nonan-3-yl)-4-(7-cyanopyrazolo[1,5-a]pyridin-4-yl)-6-methyl-morpholine-2-carboxamide]
The IC50 of the first is 11-fold higher: 18 µM for the first, 1.6 µM for the second.

Going from `C[C@@H]1CN(c2ccc(C#N)n3nccc23)C[C@H](C(=O)N2CC(N)C2)O1` [Example 8, 4-[(2R,6R)-2-(3-aminoazetidine-1-carbonyl)-6-methyl-morpholin-4-yl]pyrazolo[1,5a]pyridine-7-carbonitrile] to `C[C@@H]1CN(c2ccc(C#N)n3nccc23)C[C@H](C(=O)NC2CCCNCC2)O1` (stereo partly drawn) [Example 6, (2R,6R)-N-(azepan-4-yl)-4-(7-cyanopyrazolo[1,5-a]pyridin-4-yl)-6-methyl-morpholine-2-carboxamide], the IC50 falls from 70 µM to 4.8 µM (15-fold). The second is the more potent here.

`C[C@H]1C[C@@H](NC(=O)[C@H](C)N)CN(c2ccc(C#N)n3nccc23)C1` [Example 44, (2S)-2-amino-N-[(3R,5S)-1-(7-cyanopyrazolo[1,5-a]pyridin-4-yl)-5-methyl-3-piperidyl]propanamide] was tested, and the IC50 was 10 µM.
